Results: patent publication US20230310542A1, “EPIGENETIC MODIFIERS TO TREAT RETINAL DEGENERATIONS” (priority 2022, published 2023)

Columns and labels:
Assay type in all cases: in vivo, mouse
rd10 mice [1] = assay: Visual function by OptoMotry optomotor reflex; settings: GSK ESD
Procedure: A Cerebral Mechanics OptoMotry system (CerebralMechanics Inc.) was used to evaluate visual function in control and GSK ESD rd10 mice. Spatial frequency (SF) threshold and contrast sensitivity (CS) were assessed using a video camera to monitor optomotor reflex. CS was assessed at a SF of 0.092 cycles/degree. SF was assessed at 100% contrast. The CS and SF thresholds were identified as the highest values that elicited the reflexive head movement. […] CS were measured three times on PN33-35, when control mice were blind.

WT mice retina [2] = assay: RNA-seq of PN24 retina, WT mice; settings: GSK PN9 till PN24 vs saline; FDR<0.05, fold change >2 or <0.5
Procedure: RNA was extracted from PN24 retina of WT and rd10 animals treated with saline or GSK from PN9 till PN24. RNA integrity number (RIN) was measured using BioAnalyzer (Agilent Technologies) RNA 6000 Nano Kit to confirm RIN above 7 for each sample. The cDNA libraries were prepared using the Illumina® Stranded mRNA Prep, Ligation kit (Illumina) as per the manufacturer's instructions. Briefly, polyA RNA was purified from 200 ng of total RNA using oligo (dT) beads. The extracted mRNA fraction was subjected to fragmentation, reverse transcription, end repair, 3′— end adenylation, and adaptor ligation, followed by PCR amplification and SPRI bead purification (Beckman Coulter). […] The final product was assessed for its size distribution and concentration using BioAnalyzer High Sensitivity DNA Kit (Agilent Technologies). […] De-multiplexed and adapter-trimmed sequencing reads were generated using Illumina bcl2fastq (released version 2.20.0) allowing no mismatches in the index read. […] Next, alignment of the filtered reads to the mouse reference genome (mouse Ensembl release 67 (GRCm37/NCBIM37/mm9)) was done using HISAT2 (version 2.1.0) applying --no-mixed and --no-discordant options. Read counts were calculated using HTSeq by supplementing Ensembl gene annotation (release 67: “Mus_musculus.Ensembl.NCBIM37.67.gtf”). […]

rd10 mice retina = assay: RT-PCR retinal gene expression, rd10 mice
Procedure: (§1) Whole retinas were isolated from animals by removing the sclera and most of the retinal pigmented epithelium (RPE) layer under PBS. The right eye retinas from each animal were taken for RNA extraction, cDNA preparation and RT-PCR. Immediately after isolation, tissue was flash frozen in liquid nitrogen and stored at −80° C. Left eye retinas from each animal were subjected to fixation, cryopreservation, sectioning, and immunofluorescence staining. RNA extraction and purification followed the manufacturer's protocol from RNeasy Mini Kit and RNA shredder (Qiagen). […] Primers purchased from Integrated DNA Technologies (IDT). For quantitative real-time PCR we used 2× iQ-SYBR Green PCR supermix from Bio-Rad. Samples in triplicate were run on an iQ5 Multicolor Real Time PCR Detection System (Bio-Rad). The relative expression level for each gene was calculated by the 2-ΔΔCt method and normalized to GAPDH.

WT mice retina [3] = assay: RT-PCR retinal gene expression, WT mice
Procedure: as §1

Pde6b protein = assay: Anti-PDE6B Western blot of retina; settings: rd10 mice, GSK PN9 till PN24 vs saline
Procedure: (§2) Both retinas from one animal were flash frozen together in liquid nitrogen and stored at −80° C. Samples for SDS-PAGE were prepared by resuspended retinas in 50 μl PBS. Laemmli sample buffer was added, samples were boiled for 10 min, resolved on Criterion TGX Precast Gel AnyKD (Bio-Rad), transferred to nitrocellulose membrane, and immunoblotted with antibodies anti-H3K9me2 or anti-H3K4me2 diluted 1:5000; anti-ACTB diluted 1:10000; anti-PDE6B (1:500). Secondary goat anti-rabbit/mouse HRP (Jackson Immuno-Research Laboratory, West Grove, PA) was diluted 1:5000. An ECL western blot detection system (Thermo Fisher Scientific) was used to visualize the bound of the primary antibody.

rod nuclei = assay: Number of heterochromatin foci in rod nuclei, rd10 mice; settings: rd10 + GSK, PN24
H3K4me2, H3K9me2 = assay: Anti-H3K4me2 and anti-H3K9me2 Western blot of WT retina; settings: WT mice treated PN9 till PN24
Procedure: as §2

GFAP, IBA1 = assay: Immunofluorescence labeling of GFAP and IBA1 in retina sections; settings: rd10, treated PN9 till PN24
Procedure: Fluorescence intensity was assessed using ImageJ software (Bethesda, MD).

rd10 mice [4] = assay: GSK2879552 in artificial tears applied to the eyes of rd10 mice, rod gene expression; settings: solution in artificial tears, daily to both eyes, 5 μl
Procedure: A solution of GSK2879552 was prepared in artificial tears and applied daily to both eyes of rd10 mice in a volume of 5 μl.

[5] = GSK PN9 till PN24, compared with WT
[6] = treated PN9 till PN24 vs saline

SMILES: O=C(O)c1ccc(CN2CCC(CN[C@@H]3C[C@H]3c3ccccc3)CC2)cc1 [GSK, GSK2879552]
- contrast sensitivity preserved relative to WT (rd10 mice [1]; 0.092 c/d, PN33-35): approximately 50%
- spatial frequency threshold (acuity) (rd10 mice [1]; 100% contrast, PN24-PN32 averaged, untreated around 0.085, WT maximum 0.4): around 0.240 cyc/deg
- contrast sensitivity (rd10 mice [1]; at 0.092 c/d spatial frequency, PN33-35, WT maximum 95%): 43.4+/−14.6%
- vision preserved relative to WT acuity (rd10 mice [1]; rd10 mice): around 60%
- acuity over time PN24 to PN32 (rd10 mice [1]; data not shown): slowly increased
- number of genes downregulated (WT mice retina [2]): 13 genes
- number of genes upregulated (WT mice retina [2]): 77 genes
- expression of cone genes except S-opsin (rd10 mice retina; GSK ESD PN9 till PN24): increased to WT levels
- expression of Rho, Prph2, Nr2e3, Nrl, and Pde6b (rd10 mice retina; [5]): increased dramatically and reached WT level
- expression of Sag, Rom1, Crx, Cnga1 and Cngb1 (rd10 mice retina; [5]): increased, but not to the WT level
- RNA levels of H2-Aa, C1qa, Aif1 and Cx3cr1 (rd10 mice retina; GSK PN9 till PN24 vs saline): reduced
- expression of cone markers (rd10 mice retina; GSK daily, PN24, rd10 slightly lower than WT): did not change it
- gene expression of INL cell types (rd10 mice retina; GSK from PN30 till PN40, assayed PN40): did not change
- expression of Rgr and Hes5 (rd10 mice retina; GSK treatment of rd10 mice): increase
- expression of rod photoreceptor genes relative to GAPDH (rd10 mice retina; treated PN9 till PN24, assayed PN24, vs saline): increased expression of almost all rod genes
- expression of most other retina cell type markers (rd10 mice retina; treated PN9 till PN24, except Rgr and Hes5): appeared to be decreased
- expression of Capn2 and Aifm1 (rd10 mice retina; [6]): somewhat decreased
- expression of apoptotic specific genes Bcl2, Apaf1, and Casp9 (rd10 mice retina; [6]): slightly decreased
- expression of cone genes Thrb or Gnat2 (rd10 mice retina; [6]): slightly up-regulated
- expression of rod photoreceptor genes (WT mice retina [3]; WT mice treated PN9 till PN24): no changes
- expression of transcription factors of retina development and maturation (WT mice retina [3]; WT retinas, treated PN9 till PN24): slightly increased expression
- Pde6b protein in retina (Pde6b protein): three-fold increase
- rod nuclei with three foci (rod nuclei; untreated rd10 3%): 20%
- rod nuclei with two foci (rod nuclei; untreated rd10 26%): 45%
- rod nuclei with one focus (rod nuclei; untreated rd10 72%): 35%
- global levels of H3K4me2 (H3K4me2, H3K9me2): did not change significantly
- global levels of H3K9me2 (H3K4me2, H3K9me2): No changes
- Gfap gene expression and GFAP protein labeling (gliosis) (GFAP, IBA1): reductions in Muller cell activation
- IBA1 labeling (microglia) (GFAP, IBA1; levels remained above WT): decreased
- rod specific gene expression after topical application (rd10 mice [4]): Several rod specific genes were upregulated
